{
  "source": "patent US20230313199A1",
  "about": "“TARGET FOR MODULATING BODY MASS” (Massachusetts Institute of Technology, priority 2020, published 2023)",
  "system": "THP-1 cells",
  "test": "Inhibition of heme-stimulated thermogenesis (FPT) in THP-1 cells",
  "type": "cell-based, human",
  "conditions": "4 μM thapsigargin 2 hours, then 40 μM heme one hour",
  "procedure": "FIGS. 5A-5F show MFSD7C and heme regulate thermogenesis through SERCA2b in THP-1 cells. […] 30 hours later, MG132 was added into half of the cells and the other half was not treated. Another 35 hours later, some cells were treated with 40 μM heme for 1 hour before lysis. Cell lysates were immunoprecipitated with anti-FLAG antibody, and eluted, followed by anti-HA immunoprecipitation and elution. Total cell lysate and elute were subjected to Western blotting and probed with anti-SERCA2b or anti-MFSD7C antibodies. Shown are representative data from one of three experiments. […] 24 hrs later, cells were either not treated or treated with 10 μM MG132 for either 6 or 12 hours. The cells were lysed and subjected to FLAG pull-down and blotted with anti-MFSD7C, anti-SERCA2b and anti-ubiquitin antibodies. Shown are representative data from one of three experiments. […] Parental THP-1 cells were either not treated or treated with heme before lysis. Shown are representative data from one of four experiments. […]\nFIGS. 16A-16F show Co-localization of MFSD7C and SERCA2b. […] Co-localization between MFSD7C and SERCA2b was quantified. […] P-values were calculated using unpaired t-test (***p<0.05). […]\nIn the second approach, we used fluorescent polymeric thermometer (FPT), which we synthesized in-house (see above). […] Then the fluorescence intensities were determined by a flow cytometer.",
  "data": [
    {"smiles": "C/C=C(/C)C(=O)O[C@H]1C(C)=C2[C@H]([C@@H]1OC(=O)CCCCCCC)[C@@](C)(OC(C)=O)C[C@H](OC(=O)CCC)[C@@]1(O)[C@H]2OC(=O)[C@@]1(C)O", "note": "[thapsigargin]", "values": [
      {"measurement": "heme-stimulated thermogenesis", "result": "mostly inhibited"}
    ]}
  ]
}
